Reference: US8829007B2 (priority 2009, dated 2014)
Like-named read-outs stand apart in the source and are kept apart here.

Columns and labels:
[1] = tested on: influenza A virus (A/PR/8/34); experiment: microbe, parasite or virus in culture; format: cell-based
[2] = tested on: A/PR/8/34 influenza virus; experiment: microbe, parasite or virus in culture; format: cell-based
[3] = Influenza A virus, PR/8, MDCK, MDCK cells infected with A/PR/8/34, survival of infected cells, class symbols, read-out: IC50 (mean all)
[4] = Influenza A virus, PR/8, MDCK, MDCK cells infected with A/PR/8/34, replication of influenza virus (viral RNA, bDNA), class symbols, read-out: EC50 (mean all)
[5] = Influenza A virus, PR/8, MDCK, mean all, survival of A/PR/8/34 infected MDCK cells (CPE assay), read-out: IC50
[6] = Influenza A virus, PR/8, mean all, replication of A/PR/8/34 influenza virus (bDNA assay), read-out: EC50
[7] = Influenza A virus, PR/8, MDCK, bDNA assay, A/PR/8/34 influenza virus replication in MDCK cells, class symbols, read-out: EC50 (mean all)

## 1-[(1S,2S)-2-[[2-(5-chloro-1H-pyrrolo[2,3-b]pyridin-3-yl)-5-fluoro-pyrimidin-4-yl]amino]cyclohexyl]-3-methyl-urea [Compound 426]
[1]; read-out: IC50
  IC50: < 5 µM
[2]; mean all, A/PR/8/34 influenza virus in MDCK cells, bDNA assay, read-out: EC50
  EC50: < 5 µM

## O=C(O)[C@H]1CCCC[C@@H]1Nc1nc(-c2c[nH]c3ncc(Cl)cc23)ncc1F (racemic) [Compound 541, Trans-2-(2-(5-chloro-1H-pyrrolo[2,3-b]pyridin-3-yl)-5-fluoropyrimidin-4-ylamino)cyclohexanecarboxylic acid]
[1]; [3]
  IC50: < 5 µM
[2]; [4]
  EC50: < 5 µM

## N[C@@H]1CCCC[C@H]1CNc1nc(-c2c[nH]c3ncc(Cl)cc23)ncc1F (racemic) [Compound 555, N-((trans-2-aminocyclohexyl)methyl)-2-(5-chloro-1H-pyrrolo[2,3-b]pyridin-3-yl)-5-fluoropyrimidin-4-amine]
[1]; [3]
  IC50: > 10 µM
[2]; [4]
  EC50: < 5 µM

## O=C(O)[C@H]1[C@@H]2CC[C@@H](C2)[C@@H]1Nc1nc(-c2c[nH]c3ncc(Cl)cc23)ncc1F (racemic) [Compound 946]
[1]; [5]
  IC50: < 5 µM
[2]; [6]
  EC50: < 5 µM

## O=C(O)[C@H]1C(Nc2nc(-c3c[nH]c4ncc(Cl)cc34)ncc2F)[C@H]2CC[C@@H]1C2 (mixture of isomers) [Compound 947]
[1]; [5]
  IC50: < 5 µM
[2]; [6]
  EC50: < 5 µM

## Fc1cnc(-c2c[nH]c3ncc(Cl)cc23)nc1N[C@H]1CCCN(Cc2ncc[nH]2)C1 [Compound 589, (S)—N-(1-((1H-imidazol-2-yl)methyl)piperidin-3-yl)-2-(5-chloro-1H-pyrrolo[2,3-b]pyridin-3-yl)-5-fluoropyrimidin-4-amine]
[2]; [4]
  EC50: < 5 µM

## CC(C)(C(=O)O)N1CCC[C@H](Nc2nc(-c3c[nH]c4ncc(Cl)cc34)ncc2F)C1 [Compound 590]
[2]; [4]
  EC50: > 3.3 µM

## COCCOC(=O)N[C@@H]1CCC[C@H](Nc2nc(-c3c[nH]c4ncc(Cl)cc34)ncc2F)C1 [Compound 592, 2-methoxyethyl N-[(1R,3S)-3-[[2-(5-chloro-1H-pyrrolo[2,3-b]pyridin-3-yl)-5-fluoro-pyrimidin-4-yl]amino]cyclohexyl]carbamate]
[2]; [4]
  EC50: < 5 µM

## NC(=O)CN[C@@H]1CCC[C@H](Nc2nc(-c3c[nH]c4ncc(Cl)cc34)ncc2F)C1 [Compound 593]
[2]; [4]
  EC50: < 5 µM

## N#CCCCN1CCC[C@@H](CNc2nc(-c3c[nH]c4ncc(Cl)cc34)ncc2F)C1 [Compound 666, (S)-4-(3-((2-(5-chloro-1H-pyrrolo[2,3-b]pyridin-3-yl)-5-fluoropyrimidin-4-ylamino)methyl)piperidin-1-yl)butanenitrile]
[2]; [7]
  EC50: > 10 µM

## N#CCCN1CCC[C@@H](CNc2nc(-c3c[nH]c4ncc(Cl)cc34)ncc2F)C1 [Compound 667, (S)-3-(3-((2-(5-chloro-1H-pyrrolo[2,3-b]pyridin-3-yl)-5-fluoropyrimidin-4-ylamino)methyl)piperidin-1-yl)propanenitrile]
[2]; [7]
  EC50: > 10 µM

## Fc1cnc(-c2c[nH]c3ncc(Cl)cc23)nc1N[C@H]1CCCN(CC(F)(F)F)C1 [Compound 668, (S)-2-(5-chloro-1H-pyrrolo[2,3-b]pyridin-3-yl)-5-fluoro-N-(1-(2,2,2-trifluoroethyl)piperidin-3-yl)pyrimidin-4-amine]
[2]; [7]
  EC50: < 5 µM

## NC(=O)[C@@H]1CCC[C@H](Nc2nc(-c3c[nH]c4ncc(Cl)cc34)ncc2F)C1 [Compound 847]
[2]; mean all, A/PR/8/34 influenza virus replication, bDNA, read-out: EC50
  EC50: < 5 µM

## C[C@@]1(C(N)=O)CCC[C@H](Nc2nc(-c3c[nH]c4ncc(Cl)cc34)ncc2F)C1 [Compound 924, (1R,3S)-3-[[2-(5-chloro-1H-pyrrolo[2,3-b]pyridin-3-yl)-5-fluoro-pyrimidin-4-yl]amino]-1-methyl-cyclohexanecarboxamide]
[2]; [6]
  EC50: < 5 µM

## C[C@@]1(NC(=O)N2CCCC2)CCCC(Nc2nc(-c3c[nH]c4ncc(Cl)cc34)ncc2F)C1 (some centres unmarked) [Compound 926]
[2]; [6]
  EC50: < 5 µM
